The source of these data is patent US12409206B2, “Use of cyclosporine analogues for treating fibrosis” (Hepion Pharmaceuticals, Inc., priority 2020, dated 2025).

The subject of data set [1] is Human renal mesangial cells. The experiment in a line: Cell viability analysis, renal mesangial cell culture. Type of data set: cell-based. The settings on record: end of 4 days of treatment. The procedure:
Human renal mesangial cells (ScienCell, Cat. #4200 (SC)) were cultured in 96-well plates. Treatments were applied in triplicate wells (applied 100 ul treatments per well) for 2 days, then re-applied for an additional 2 days. Cells were near confluence at the start of treatments. […] Spent culture medium collected from Day 2-4 of treatment was assayed for procollagen and fibronectin by enzyme-linked immunosorbent assays (ELISA) (Procollagen ELISA antibody pair (ab216064) and fibronectin ELISA antibody pair (ab222262) from Abcam). Procollagen and fibronectin were not detected in medium not applied to cells. Procollagen and fibronectin levels in the medium are represented by means±SD (bars) from 3 replicate wells (open circles).

A further data set has as its system hepatitis C. The following applies: preclinical studies; cited from earlier work.
Another data set relates to HIV. The settings on record: preclinical studies; cited from earlier work.
For data set [2], the system named is Human Lung Fibroblasts from a Patient with Idiopathic Pulmonary Fibrosis (IPF). In words: Cell viability analysis, IPF lung fibroblast culture. Type of data set: cell-based. The following applies: end of treatment (6 days). How it is done:
(§1) Human Lung Fibroblasts from a Patient with Idiopathic Pulmonary Fibrosis (IPF) (Lonza Bioscience, Cat. #CC-7231) were cultured in 96-well plates. Treatments were applied in triplicate wells (applied 100 ul treatments per well) for 6 days. Cells were near confluence at the start of treatments. […] Spent culture medium collected at the end of the treatments was assayed for procollagen and fibronectin by enzyme-linked immunosorbent assays (ELISA) (Procollagen ELISA antibody pair (ab216064) and fibronectin ELISA antibody pair (ab222262) from Abcam). Procollagen and fibronectin were not detected in medium not applied to cells. Procollagen and fibronectin levels in the medium are represented by means±SD (bars) from 3 replicate wells (open circles).

In data set [3] the test system is human precision cut IPF lung slices. In words: Secreted markers (ELISA) in precision cut IPF lung slices in culture. The following applies: CRV431 applied at 5 μM; 4 daily treatment intervals; relative to DMSO vehicle. Type of data set: cell-based. The procedure:
This example describes a study conducted with precision cut lung slices. Precision cut slices from explanted lung tissue from a patient with biopsy-confirmed, idiopathic pulmonary fibrosis (IPF) were cultured for 6 days. Treatments were applied to 6 replicate slices per treatment on Day 2 of culture and replaced daily on Days 3, 4, and 5 of culture.
For generating the results of secreted marker (% daily average change) shown in FIG. 6A, spent medium (24-hr intervals) was collected on Days 3, 4, 5, and 6 to measure secretion by ELISA of six markers of inflammation and fibrosis: monocyte chemoattractant protein (MCP-1), interleukin-6 (IL-6), matrix metalloproteinase-7 (MMP-7), tissue inhibitor of metalloproteinase-1 (TIMP1), hyaluronic acid, and collagen 1α1. The mean level of secretion from 6 replicate slices for each drug treatment was expressed as a percentage change relative to DMSO vehicle treatment for each day of treatment, and then the mean percentage change from 4 daily treatment intervals was calculated.
(ELISA stands for enzyme-linked immunosorbent assay.)

In data set [4] the test system is Human LX-2 Hepatic Stellate Cells. The experiment in a line: Cell viability analysis, LX-2 culture. The format is cell-based. The settings on record: end of treatment (24 hours). How it is done:
as §1, with “LX-2 Hepatic Stellate Cells (Millipore-Sigma,” for “Lung Fibroblasts from a Patient with Idiopathic Pulmonary Fibrosis (IPF) (Lonza Bioscience,”, “#SCC064)” for “#CC-7231)”, “24 hours.” for “6 days.”

Data set [5] has as its system human precision cut liver slices (PCLS). The experiment in a line: PCLS biomarker secretion (ELISA). The format is cell-based. How it is done: PCLS were obtained from 5 human donors who underwent resection of liver cancer. Replicate slices were collected from healthy margins of the resections and cultured for 4 or 6 days depending on the experimental protocol. In the Nonstimulation Protocol slices were cultured for 6 days and treated for the entire period with DMSO vehicle or 5 μM CRV431. In the Stimulation Protocol slices were rested for 1 day and then administered the cytokines, TGFβ and PDGF-BB, for 3 days to stimulate inflammation and fibrosis. DMSO vehicle, CRV431 (1 and 5 μM), Alk5i (10 μM), obeticholic acid (5 μM), elafibranor (5 μM), resmetirom ([…]), and Aramchol (5 μM) were administered individually as drug treatments in the Stimulation Protocol concurrent with TGFβ+PDGF-BB. Culture medium treatments were replaced daily.
Four types of evaluations were conducted on the PCLS: (a) secretion of inflammation and fibrosis biomarkers into the culture medium, (b) histological staining and quantitation of Sirius red as a measure of tissue fibrosis, (c) gene expression of inflammation and fibrosis biomarkers by RT-PCR, and (d) RNA sequencing (RNA-Seq) of the complete transcriptome. Each of the four types of evaluation is described below: • (a) Biomarker secretion. Spent culture medium was collected daily from duplicate slices for each treatment. ELISAs were used to quantify secretion of monocyte chemoattractant protein (MCP-1), interleukin-6 (IL-6), tissue inhibitor of metalloproteinase-1 (TIMP1), hyaluronic acid, fibronectin, and collagen 1α1. For each donor the mean level of biomarker secretion in each treatment group was expressed as a percentage change relative to DMSO vehicle, the percentages averaged for all donors, and finally the mean daily percentage change calculated from all days of evaluation. […] Sirius red was quantified morphometrically in the histological sections as the percentage area with Sirius red staining in 10 sections from each treatment. In the Nonstimulation Protocol the quantity of Sirius red staining was expressed relative to the vehicle group. In the Stimulation Protocol the quantity of Sirius red staining was expressed relative to nonstimulated PCLS (0%) and TGFβ+PDGF-BB-stimulated+vehicle PCLS (100%). […] RNA was isolated from duplicate liver slices per treatment at the end of the experiments and evaluated by RT-PCR for 5 markers of inflammation and fibrosis: MCP-1, IL-6, TIMP1, αSMA, and collagen 1α1. β actin was used as a reference gene to calculate relative levels of each target gene RNA. […] RNA sequencing of the complete transcriptome (30 million reads per sample) was conducted on vehicle and 5 μM CRV431 treatment groups from 3 donors both from the Nonstimulation and Stimulation Protocols. […]

Data set [6] deals with Human LX-2 Hepatic Stellate Cells. In words: Procollagen and fibronectin ELISA of spent medium, LX-2 culture. The format is cell-based. The settings on record: 24 hours, both in the absence or presence of 0.1 ng/ml TGFβ. The procedure: as §1, with “LX-2 Hepatic Stellate Cells (Millipore-Sigma,” for “Lung Fibroblasts from a Patient with Idiopathic Pulmonary Fibrosis (IPF) (Lonza Bioscience,”, “#SCC064)” for “#CC-7231)”, “24 hours.” for “6 days.”

Molecules are shown by their SMILES.

`CC[C@@H]1NC(=O)[C@H]([C@H](O)[C@H](C)CCCCCCNC(C)=O)N(C)C(=O)[C@H](C(C)C)N(C)C(=O)[C@H](CC(C)C)N(C)C(=O)[C@H](CC(C)C)N(C)C(=O)[C@@H](C)NC(=O)[C@H](C)NC(=O)[C@H](CC(C)C)N(C)C(=O)[C@H](C(C)C)NC(=O)[C@H](CC(C)C)N(C)C(=O)[C@@H](C)N(C)C1=O` [CRV431]: the cell viability result in data set [1], in data set [2] and in data set [4] was “none of the CRV431 treatments affected cell viability” in each case. Besides, the anti-viral activity result in the data set on hepatitis C and in the data set with HIV was “shows anti-viral activity” in each case. The “mean daily secretion of all markers (MCP-1, IL-6, MMP-7, TIMP1, hyaluronic acid, collagen 1α1)” value in data set [3] is “decreased”. Moreover, the “mean daily secretion of all markers” value in data set [5] (CRV431 applied at 5 μM, markers MCP-1, IL-6, TIMP1, hyaluronic acid, fibronectin, collagen 1α1) is given as “decreased”. In addition, the “secretion of collagen1α1, fibronectin, hyaluronic acid, IL-6, and MCP-1” value in data set [5] (ELISA) is given as “reduced secretion”. Moreover, the “abundance of fibronectin in the medium” value in data set [6] is “dose-dependently decreased”. Besides, the “abundance of procollagen in the medium” value in data set [6] is given as “dose-dependently decreased”.
